{"source": "patent US20070238700A1", "about": "“N-PHENYL-1,1,1-TRIFLUOROMETHANESULFONAMIDE HYDRAZONE DERIVATIVE COMPOUNDS AND THEIR USAGE IN CONTROLLING PARASITES” (priority 2006, published 2007)", "key": {"[1]": {"system": "Haemonchus contortus", "test": "Haemonchus contortus larvacidal assay (larval development, LD99)", "description": "a) Haemonchus Contortus Larvacidal Assay:\nThe effect of compounds on larval development was determined in the assay described by Gill et al., (1995, International Journal of Parasitology 25:463-470). Briefly, in this assay, nematode eggs were applied to the surface of an agar matrix containing the test compound and then allowed to develop through to the L3, infective stage (6 days). The wells for each dilution of every compound (from highest to lowest concentration) were inspected to determine the well number corresponding to the lowest concentration at which development was inhibited in 99% of the nematode larvae present (LD99). Because well numbers correspond to a two-fold serial dilution of each compound, a titre (dilution factor) is generated as 2n^−1, where n is the well number. By dividing the highest concentration tested by the titre an LD99 value can be obtained, representing the concentration required to inhibit development in 99% of the nematode larvae present. The compounds supplied as solid and viscous liquids were dissolved in DMSO. Twelve serial one-half dilutions in DMSO solution were prepared from the stock solution, each of which was then diluted ⅕ with water. Aliquots (10 μl) of each dilution were transferred to the bioassay plates to give a final concentration range of 0.024 to 50 μg/ml."}, "[2]": {"system": "Ctenocephalides felis", "method_in_brief": "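Adult cat fleas (3–7 days post-emergence), 15 per flask in ≥4 replicates, exposed to a dried acetone residue at 1.26 μg/cm^2 on a Coatasil-treated glass flask base. Held at 25±1° C, 75±5% humidity; mortality (immobile or unable to right) scored at 8, 24 and/or 48 h.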"}, "[3]": {"system": "Ctenocephalides felis", "test": "Ctenocephalides felis adulticide assay: C. felis dose response (LC50)"}, "[4]": {"system": "Rhipicephalus sanguineus", "test": "Dose response protocol for topical application on brown dog ticks (LD50)", "conditions": "24 h mortality, probit analysis", "method_in_brief": "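Adult mixed-sex unfed ticks, groups of ten in four replicates, received 1 μL of one of seven acetone serial dilutions topically on the abdomen at 25±1° C; acetone-only controls. Mortality (no response to touch or breath within 30 s) was scored at 24 h to give the LD50.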"}, "[5]": {"system": "Rhipicephalus sanguineus", "test": "Rapid screening protocol for topical application on brown dog ticks (% mortality)", "conditions": "data from laboratory 2", "method_in_brief": "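Mixed-sex unfed adult ticks each received 1 μL test sample in acetone on the abdomen at a single screening dose chosen above the reference LD90 (fipronil 10 μg/tick), with acetone-only controls; 4 replicates of 10 ticks. Held 24 h at 25±1 °C; ticks unresponsive to light touch over 1 min scored dead, pooled as % mortality.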"}}, "note": "Like-named read-outs stand apart in the source and are kept apart here."}
{"smiles": "Cn1ccc(-c2cc(Cl)ccc2NS(=O)(=O)C(F)(F)F)n1", "values": [{"measurement": "melting point", "result": "196 to 197", "unit": "°C"}]}
{"smiles": "CC(=NNc1ccc(Cl)cc1Cl)c1cc(Cl)ccc1NS(=O)(=O)C(F)(F)F", "note": "[Compound 4]", "values": [{"measurement": "H. contortus LD99", "setting": "[1]", "result": 0.63, "unit": "ppm"}]}
{"smiles": "CCC(=NNc1ccc(Cl)c(Cl)c1)c1cc(Cl)ccc1NS(=O)(=O)C(F)(F)F", "note": "[Compound 14]", "values": [{"measurement": "H. contortus LD99", "setting": "[1]", "result": 3.8, "unit": "ppm"}]}
{"smiles": "CCC(=NNc1ccc(Br)cc1)c1cc(Cl)ccc1NS(=O)(=O)C(F)(F)F", "note": "[Compound 15]", "values": [{"measurement": "H. contortus LD99", "setting": "[1]", "result": 3.8, "unit": "ppm"}]}
{"smiles": "CCC(=NNc1ccc(C(F)(F)F)cc1)c1cc(Cl)ccc1NS(=O)(=O)C(F)(F)F", "note": "[Compound 2]", "values": [{"measurement": "H. contortus LD99", "setting": "[1]", "result": 6, "unit": "ppm"}]}
{"smiles": "CC(=NNc1ccc(C(F)(F)F)cc1)c1cc(Cl)ccc1NS(=O)(=O)C(F)(F)F", "note": "[Compound 1, N-[2-[1-(4-trifluoro-methylphenyl)hydrazono]ethyl-4-chlorophenyl]-trifluoromethanesulfonamide]", "values": [{"measurement": "H. contortus LD99", "setting": "[1]", "result": 3.8, "unit": "ppm"}]}
{"smiles": "CC(=NNc1ccc(Br)cc1)c1cc(Cl)ccc1NS(=O)(=O)C(F)(F)F", "note": "[Compound 8]", "values": [{"measurement": "H. contortus LD99", "setting": "[1]", "result": 7.5, "unit": "ppm"}, {"measurement": "C. felis Mortality (%) 8 h", "setting": "[2]; 8 h, data from laboratory 2", "result": "12^B %"}]}
{"smiles": "CC(=NNc1cc(Cl)cc(Cl)c1)c1cc(Cl)ccc1NS(=O)(=O)C(F)(F)F", "note": "[Compound 6]", "values": [{"measurement": "H. contortus LD99", "setting": "[1]", "result": 3.5, "unit": "ppm"}]}
{"smiles": "CCC(=NNc1ccc(Cl)cc1Cl)c1cc(Cl)ccc1NS(=O)(=O)C(F)(F)F", "note": "[Compound 18]", "values": [{"measurement": "H. contortus LD99", "setting": "[1]", "result": 0.47, "unit": "ppm"}, {"measurement": "C. felis Mortality (%) 8 h", "setting": "[2]; 8 h, data from laboratory 2", "result": "5^B %"}]}
{"smiles": "CC(=NNC(=O)c1ccccc1)c1cc(Cl)ccc1NS(=O)(=O)C(F)(F)F", "note": "[Compound 11]", "values": [{"measurement": "H. contortus LD99", "setting": "[1]", "result": ">15", "unit": "ppm"}]}
{"smiles": "COc1ccc(NN=C(C)c2cc(Cl)ccc2NS(=O)(=O)C(F)(F)F)cc1", "note": "[Compound 10]", "values": [{"measurement": "H. contortus LD99", "setting": "[1]", "result": ">15", "unit": "ppm"}]}
{"smiles": "CCC(=NNc1cccc(Cl)c1Cl)c1cc(Cl)ccc1NS(=O)(=O)C(F)(F)F", "note": "[Compound 13, N-[2-[1-(2,3-dichlorophenyl)hydrazono]propyl-4-chlorophenyl]-trifluoromethanesulfonamide]", "values": [{"measurement": "H. contortus LD99", "setting": "[1]", "result": 3, "unit": "ppm"}]}
{"smiles": "CC(=NNc1cc(Cl)ccc1Cl)c1cc(Cl)ccc1NS(=O)(=O)C(F)(F)F", "note": "[Compound 7]", "values": [{"measurement": "H. contortus LD99", "setting": "[1]", "result": 0.94, "unit": "ppm"}]}
{"smiles": "CCC(=NNc1cc(Cl)ccc1Cl)c1cc(Cl)ccc1NS(=O)(=O)C(F)(F)F", "note": "[Compound 19]", "values": [{"measurement": "H. contortus LD99", "setting": "[1]", "result": 0.94, "unit": "ppm"}]}
{"smiles": "CCC(=NNc1cc(Cl)cc(Cl)c1)c1cc(Cl)ccc1NS(=O)(=O)C(F)(F)F", "note": "[Compound 16]", "values": [{"measurement": "H. contortus LD99", "setting": "[1]", "result": 2.8, "unit": "ppm"}]}
{"smiles": "C/C(=N\\N(C)C1CCCC1)c1cc(Cl)ccc1NS(=O)(=O)C(F)(F)F", "note": "[Compound 211]", "values": [{"measurement": "C. felis LC50", "setting": "[3]", "result": 1.9, "unit": "ppm"}, {"measurement": "C. felis Mortality (%) 8 h", "setting": "[2]", "result": 12, "unit": "%"}, {"measurement": "C. felis Mortality (%) 24 h", "setting": "[2]", "result": 85, "unit": "%"}, {"measurement": "R. sanguineus LD50", "setting": "[4]", "result": 1.01, "unit": "μg/tick"}, {"measurement": "R. sanguineus Mortality (%) 24 h", "setting": "[5]", "result": 98, "unit": "%"}]}
{"smiles": "CC(=NN(C)c1ccc(Cl)cc1)c1cc(Cl)ccc1NS(=O)(=O)C(F)(F)F", "note": "[Compound 105]", "values": [{"measurement": "C. felis LC50", "setting": "[3]", "result": 3.0, "unit": "ppm"}, {"measurement": "C. felis Mortality (%) 8 h", "setting": "[2]", "result": 42, "unit": "%"}, {"measurement": "C. felis Mortality (%) 24 h", "setting": "[2]", "result": 100, "unit": "%"}, {"measurement": "R. sanguineus LD50", "setting": "[4]", "result": 1.4, "unit": "μg/tick"}, {"measurement": "R. sanguineus Mortality (%) 24 h", "setting": "[5]", "result": 95, "unit": "%"}]}
{"smiles": "CC(=NNc1cccc(Cl)c1Cl)c1cc(Cl)ccc1NS(=O)(=O)C(F)(F)F", "note": "[Compound 3]", "values": [{"measurement": "H. contortus LD99", "setting": "[1]", "result": 1.5, "unit": "ppm"}]}
{"smiles": "CC(=NNc1ccc(Cl)c(Cl)c1)c1cc(Cl)ccc1NS(=O)(=O)C(F)(F)F", "note": "[Compound 5]", "values": [{"measurement": "H. contortus LD99", "setting": "[1]", "result": 3.3, "unit": "ppm"}]}
{"smiles": "CC(=NN(c1ccc(F)cc1)C(C)C)c1cc(Cl)ccc1NS(=O)(=O)C(F)(F)F", "note": "[Compound 48]", "values": [{"measurement": "C. felis LC50", "setting": "[3]", "result": 0.64, "unit": "ppm"}, {"measurement": "C. felis Mortality (%) 8 h", "setting": "[2]", "result": 95, "unit": "%"}, {"measurement": "C. felis Mortality (%) 24 h", "setting": "[2]", "result": 100, "unit": "%"}, {"measurement": "R. sanguineus LD50", "setting": "[4]", "result": 6.3, "unit": "μg/tick"}, {"measurement": "R. sanguineus Mortality (%) 24 h", "setting": "[5]", "result": 80, "unit": "%"}]}
{"smiles": "CC(=NN(C)c1cc(Cl)cc(Cl)c1)c1cc(Cl)ccc1NS(=O)(=O)C(F)(F)F", "note": "[Compound 99]", "values": [{"measurement": "C. felis LC50", "setting": "[3]", "result": 1.9, "unit": "ppm"}, {"measurement": "C. felis Mortality (%) 8 h", "setting": "[2]", "result": 57, "unit": "%"}, {"measurement": "C. felis Mortality (%) 24 h", "setting": "[2]", "result": 100, "unit": "%"}, {"measurement": "R. sanguineus LD50", "setting": "[4]", "result": 3.1, "unit": "μg/tick"}, {"measurement": "R. sanguineus Mortality (%) 24 h", "setting": "[5]", "result": 95, "unit": "%"}]}
